Here are results for twelve compounds from patent US9458132B2, “Therapeutic compounds and compositions and their use as PKM2 modulators” (AGIOS PHARMACEUTICALS, INC., priority 2012, dated 2016).

Experiment [1] concerns the target PKR R532W (Homo sapiens, UniProt P30613, R532W). In words: PKR mutant assay, PKR R532W AC50. It counts as biochemical. To be noted: mutant PKR R532W enzyme. The protocol: (§1) • PKR or PKR mutant enzyme solution was diluted in assay buffer. • 2 μL of test compound was added into wells first, and then 180 μL reaction mix was added. • Reactions mixture with test compound was assembled except for ADP, and plates were stored for 60 minutes at room temperature. • 20 uL ADP was added to start reaction at room temperature and reaction progress was measured as changes in absorbance at 340 nm wavelength at room temperature.
(§2) Test Compound Preparation: • Test compound stock was made at 100x concentration in 100% DMSO (10 mM) • 1 to 3 dilutions were made for 11 points (i.e. 50 μl of first concentration added to 100 μl 100% DMSO to yield 3.33 mM, 50 μl of this added to 100 μl DMSO to yield 1.11 mM, and so forth) • 1 to 100 dilution into assay (2 μl in 200 μl) yielded starting concentration of 100 μM, decreasing 3 fold for 11 points • Assay Buffer: 100 mM KCl, 50 mM Tris 7.5, 5 mM MgCl2, 1 mM DTT, 0.03% BSA • Reaction Mixture: PKR mutant enzyme: 80-400 ng/well; ADP: 0.22-1.65 mM; PEP: 0.1-0.5 mM; NADH:180 uM; LDH: 0.5 units (Sigma#59023); DTT: 1 mM; BSA: 0.03%.
(§3) A compound described herein was diluted with DMSO and tested at 1 μM concentration. The enzyme was diluted in 1× Buffer: (100 mM KCl, 50 mM Tris 7.5, 5 mM MgCl2, 1 mM DTT, 0.03% BSA). 2 μL of compound solution was first added into wells, and then 180 μL of enzyme solution was added. Assays were assembled except for ADP, and plates were stored for 60 minutes at RT. 20 μL ADP was added to start the assay and assay output was evaluated using OD340 at SpectraMax. The assay was run at room temperature. • Final concentration: PKR R532W (100 ng/well), Tris pH 7.5 (50 mM), KCl (100 mM), MgCl2 (5 mM), ADP (0.36 mM), PEP (0.1 mM), NADH (180 μM), LDH (0.5 units, Sigma 59023), DTT (1 mM) and BSA (0.03%).

Experiment [2] concerns the target T1, PKR WT (Homo sapiens, UniProt P30613). Briefly: PKR WT cell based assay AC50. To be noted: wild type PKR.
The target in experiment [3] is PKR R510Q (Homo sapiens, UniProt P30613, R510Q). Briefly: PKR mutant assay, PKR R510Q AC50. The format is biochemical. To be noted: mutant PKR R510Q enzyme. Here is the method:
as §1
as §2, with “0.03%. […]” for “0.03%.”

Experiment [4] addresses T1, PKR WT. Briefly: PKR WT enzymatic assay AC50. It counts as biochemical. To be noted: wild type PKR. Here is the method:
as §1, §2
as §3, with “wt” for “R532W”, “(0.48” for “(0.36”, “(0.15” for “(0.1”

Sequence of PKR R532W (P30613 whole entry R532W): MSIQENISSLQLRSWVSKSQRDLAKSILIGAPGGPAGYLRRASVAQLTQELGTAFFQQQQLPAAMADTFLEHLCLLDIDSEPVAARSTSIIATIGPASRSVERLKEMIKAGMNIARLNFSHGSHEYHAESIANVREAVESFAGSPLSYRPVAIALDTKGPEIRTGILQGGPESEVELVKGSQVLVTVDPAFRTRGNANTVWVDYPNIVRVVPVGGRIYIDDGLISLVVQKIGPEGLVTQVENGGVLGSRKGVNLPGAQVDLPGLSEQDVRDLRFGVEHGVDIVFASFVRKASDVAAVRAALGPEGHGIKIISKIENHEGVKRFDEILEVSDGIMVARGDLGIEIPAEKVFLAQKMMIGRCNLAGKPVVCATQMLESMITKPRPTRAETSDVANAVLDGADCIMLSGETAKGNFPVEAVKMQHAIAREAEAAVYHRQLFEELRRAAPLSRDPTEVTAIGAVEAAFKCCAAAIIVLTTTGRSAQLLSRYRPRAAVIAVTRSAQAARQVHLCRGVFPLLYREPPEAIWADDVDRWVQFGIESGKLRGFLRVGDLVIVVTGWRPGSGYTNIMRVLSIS
Sequence of PKR R510Q (P30613 whole entry R510Q): as the sequence (P30613 whole entry R532W) above, with R510Q, W532R counted along it
T1 sequence (P30613 whole entry): as the sequence (P30613 whole entry R532W) above, with W532R counted along it

For orientation: AC50 means the concentration at which the activity in the assay is half-maximal. Higher therefore signals weaker potency. For the compound `CCCCC1(O)CN(C(=O)c2ccc(NS(=O)(=O)c3cccc4cccnc34)cc2)C1` [Compound 16, N-(4-(3-butyl-3-hydroxyazetidine-1-carbonyl)phenyl)quinoline-8-sulfonamide], the AC50 in experiment [1] is 101 to 1000 nM; in experiment [2], 101 to 1000 nM; in experiment [3], 101 to 1000 nM; in experiment [4] it was less than 100 nM.
`COc1ccccc1C1(O)CN(C(=O)c2ccc(NS(=O)(=O)c3cccc4cccnc34)cc2)C1` [Compound 2, N-(4-(3-hydroxy-3-(2-methoxyphenyl)azetidine-1-carbonyl)phenyl)quinoline-8-sulfonamide]: the AC50 in experiment [1] is less than 100 nM; in experiment [2] it was 101 to 1000 nM; in experiment [3], 101 to 1000 nM; in experiment [4], less than 100 nM.
As to `O=C(c1ccc(NS(=O)(=O)c2cccc3c2OCCO3)cc1)N1CC(O)(Cc2ccccc2)C1` [Compound 53, N-(4-(3-benzyl-3-hydroxyazetidine-1-carbonyl)phenyl)-2,3-dihydrobenzo[b][1,4]dioxine-5-sulfonamide], the AC50 in experiment [1], in experiment [2], in experiment [3] and in experiment [4] was less than 100 nM each time.
With `Cc1cc(F)ccc1C1(O)CN(C(=O)c2ccc(NS(=O)(=O)c3cccc4cccnc34)cc2)C1` [Compound 12, N-(4-(3-(4-fluoro-2-methylphenyl)-3-hydroxyazetidine-1-carbonyl)phenyl)quinoline-8-sulfonamide], the AC50 in experiment [1] is less than 100 nM; in experiment [2], 101 to 1000 nM; in experiment [3], 101 to 1000 nM; in experiment [4] it was less than 100 nM.
On to `O=C(c1ccc(NS(=O)(=O)c2cccc3cccnc23)cc1)N1CC(O)(c2cccc(OC(F)(F)F)c2)C1` [Compound 10, N-(4-(3-hydroxy-3-(3-(trifluoromethoxy)phenyl)azetidine-1-carbonyl)phenyl)quinoline-8-sulfonamide], for which the AC50 in experiment [1] was less than 100 nM; in experiment [2] it was 101 to 1000 nM; in experiment [3], 101 to 1000 nM; in experiment [4] it was less than 100 nM.
For `O=C(c1ccc(NS(=O)(=O)c2cccc3cccnc23)cc1)N1CC(O)(c2ccccc2OC(F)(F)F)C1` [Compound 7, N-(4-(3-hydroxy-3-(2-(trifluoromethoxy)phenyl)azetidine-1-carbonyl)phenyl)quinoline-8-sulfonamide], the AC50 in experiment [1] was less than 100 nM; in experiment [2], 101 to 1000 nM; in experiment [3] it was 101 to 1000 nM; in experiment [4], 101 to 1000 nM.
Take `COc1ncccc1C1(O)CN(C(=O)c2ccc(NS(=O)(=O)c3cccc4cccnc34)cc2)C1` [Compound 20, N-(4-(3-hydroxy-3-(2-methoxypyridin-3-yl)azetidine-1-carbonyl)phenyl)quinoline-8-sulfonamide]: the AC50 in experiment [1], in experiment [2], in experiment [3] and in experiment [4] was 101 to 1000 nM in each case.
`COc1cccc(C2(O)CN(C(=O)c3ccc(NS(=O)(=O)c4cccc5cccnc45)cc3)C2)c1` [Compound 61]: the AC50 in experiment [1] is less than 100 nM; in experiment [2], less than 100 nM; in experiment [3] it was 101 to 1000 nM; in experiment [4], less than 100 nM.
For `O=C(c1ccc(NS(=O)(=O)c2cccc3cccnc23)cc1)N1CC(O)(c2cccc(C(F)(F)F)c2)C1` [Compound 9, N-(4-(3-hydroxy-3-(3-(trifluoromethyl)phenyl)azetidine-1-carbonyl)phenyl)quinoline-8-sulfonamide], the AC50 in experiment [1], in experiment [2], in experiment [3] and in experiment [4] was less than 100 nM each time.
As for `Cc1ccccc1C1(O)CN(C(=O)c2ccc(NS(=O)(=O)c3cccc4cccnc34)cc2)C1` [Compound 15, N-(4-(3-hydroxy-3-(o-tolyl)azetidine-1-carbonyl)phenyl)quinoline-8-sulfonamide], the AC50 was less than 100 nM in experiment [1], 101 to 1000 nM in experiment [2], 101 to 1000 nM in experiment [3] and less than 100 nM in experiment [4].
As to `O=C(c1ccc(NS(=O)(=O)c2cccc3cccnc23)cc1)N1CC(O)(c2ccccc2Cl)C1` [Compound 5, N-(4-(3-(2-chlorophenyl)-3-hydroxyazetidine-1-carbonyl)phenyl)quinoline-8-sulfonamide], the AC50 in experiment [1] was less than 100 nM; in experiment [2], 101 to 1000 nM; in experiment [3], 101 to 1000 nM; in experiment [4] it was less than 100 nM.
Turning to `O=C(c1ccc(NS(=O)(=O)c2cccc3cccnc23)cc1)N1CC(O)(c2cccc(Cl)c2)C1` [Compound 11, N-(4-(3-(3-chlorophenyl)-3-hydroxyazetidine-1-carbonyl)phenyl)quinoline-8-sulfonamide], the AC50 in experiment [1] is less than 100 nM; in experiment [2] it was 101 to 1000 nM; in experiment [3], 101 to 1000 nM; in experiment [4] it was less than 100 nM.
